The source of these data is US20160251403A1, “PEPTIDE COMBINATIONS AND USES THEREOF IN TREATING DUST MITE ALLERGY” (ALK-ABELLO A/S, priority 2013, published 2016).

Positions count from the first letter of the chain named. No end group written: not given here. Bounds are passed on as bounds.

One assay concerns the target T1, DPA10202-DPB10501 (Homo sapiens, UniProt P04440+P20036, A42M/A65V/A84E/F191V/F64L/G113D/G114E/K142R/L158P/M116V/M62Q/P115A/Q81R/R125K/T114A/T199I/T259P/V234M).
T1 sequence (P04440 30-258 A65V/A84E/F64L/G113D/G114E/M116V/P115A/R125K/T199I/V234M): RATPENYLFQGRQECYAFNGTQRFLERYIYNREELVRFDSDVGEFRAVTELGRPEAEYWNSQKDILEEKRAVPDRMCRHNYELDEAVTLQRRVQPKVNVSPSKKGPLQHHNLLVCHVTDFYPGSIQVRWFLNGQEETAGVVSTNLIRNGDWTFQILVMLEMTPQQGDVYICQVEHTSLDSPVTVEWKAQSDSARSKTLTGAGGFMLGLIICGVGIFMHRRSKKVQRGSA
T1 sequence (P20036 29-260 A42M/F191V/K142R/L158P/M62Q/Q81R/T114A/T259P): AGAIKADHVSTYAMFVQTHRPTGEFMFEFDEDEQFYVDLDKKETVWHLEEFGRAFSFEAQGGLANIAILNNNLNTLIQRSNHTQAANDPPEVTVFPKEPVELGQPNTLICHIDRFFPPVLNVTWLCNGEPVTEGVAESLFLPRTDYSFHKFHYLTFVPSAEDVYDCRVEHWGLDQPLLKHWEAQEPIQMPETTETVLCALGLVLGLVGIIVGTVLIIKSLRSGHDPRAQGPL
Briefly: Competitive MHC class II binding assay, DPA10202-DPB10501. The settings on record: positive binding at cutoff 1000 nM; read-out: HLA-DPA10202-DPB10501.

A further assay concerns the target DRB1_0101 (Homo sapiens, UniProt P01903+P01911, A100R/D57E/F55L/F60I/F76Y/I96L/L162R/M171V/P40L/Q125E/R42F/V115G/Y59C). Nature of the assay: Competitive MHC class II binding assay, DRB1_0101.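 Further: competition against a radiolabeled probe peptide (0.1–1 nM) for purified HLA class II protein over 2–4 days, bound counts read after antibody capture, six competitor levels across 100,000-fold.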
In another assay the target is DRB1_0401 (Homo sapiens, UniProt P01903+P01911, A100K/A169T/F76Y/I96L/K127E/L162R/M171V/N62H/P40V/Q125Y/R42H/S133A/S149N/S66Y/V115G/V209L/W38E). Nature of the assay: Competitive MHC class II binding assay, DRB1_0401.
Another assay concerns the target DRB1_0701 (Homo sapiens, UniProt P01903+P01911, A100R/A102G/A103Q/D57E/D86V/E43K/F76Y/K127E/L162R/M171V/P40G/Q125H/Q99D/R33Q/R42Y/R54Q/S133A/S66F/T210M/V115G/Y107V/Y59L/Y89S). Briefly: Competitive MHC class II binding assay, DRB1_0701.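 Further: displacement of a radiolabeled reference peptide from purified HLA class II protein, with complex-bound radioactivity counted after 2–4 days of incubation and six concentrations spanning a 100,000-fold range.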
The next assay has as its target DRB1_0802 (Homo sapiens, UniProt P01903+P01911, A100R/A103L/A169T/F76Y/H45Y/I96F/K41T/L162R/M171V/P40S/Q125H/Q178H/Q39Y/Q99D/R218S/R42G/S66Y/V115G/W38E). Briefly: Competitive MHC class II binding assay, DRB1_0802.
Another assay addresses DRB1_0901 (Homo sapiens, UniProt P01903+P01911, A100R/A103E/D57H/D86V/F55Y/F60I/F76Y/I96F/K127E/L162R/M171V/P40D/Q125H/Q99R/R33Q/R42F/S133A/S66N/T210M/V115G/W38K/Y107V/Y59G/Y89S). Nature of the assay: Competitive MHC class II binding assay, DRB1_0901.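 Further: displacement of a radiolabeled probe peptide from purified HLA class II protein, bound counts read after two to four days incubation, six concentrations spanning 100,000-fold, unlabeled probe as reference.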
For the next assay, the target named is DRB1_1302 (Homo sapiens, UniProt P01903+P01911, A100E/A169T/K41T/L162R/M171V/P40S/Q125H/Q178H/Q39Y/Q99D/R42S/S66N/T262R/V115G/W38E/Y61H). Nature of the assay: Competitive MHC class II binding assay, DRB1_1302.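 Further: purified HLA class II protein incubated two to four days with a radiolabeled reference binder and test peptide at six concentrations over a 100,000-fold range, complex-bound radioactivity counted.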
In another assay the target is DRB1_1501 (Homo sapiens, UniProt P01903+P01911). Briefly: Competitive MHC class II binding assay, DRB1_1501.
A further assay has as its target DRB3_0202 (Homo sapiens, UniProt P01903+P79483, A212P/D57E/F66Y/L67A/R103Q/R218S/R40L/S89Y/T80R/V86D/Y55F/Y59H). Briefly: Competitive MHC class II binding assay, DRB3_0202.
Another assay concerns the target DRB4_0101 (Homo sapiens, UniProt P01903+P13762, G164S). Nature of the assay: Competitive MHC class II binding assay, DRB4_0101.
A further assay addresses DRB5_0101 (Homo sapiens, UniProt P01903+Q30154). Briefly: Competitive MHC class II binding assay, DRB5_0101.
The target in the next assay is DQA10501-DQB10301 (Homo sapiens, UniProt P01909+P01920). Briefly: Competitive MHC class II binding assay, DQA10501-DQB10301.
For the next assay, the target named is DQA10101-DQB10501 (Homo sapiens, UniProt P01909+P01920, A157S/A45G/A70V/C70R/D89V/E106S/E118A/E183D/E77G/F83G/G63E/H151Q/H199R/H252R/H253Q/I129T/I235V/I88M/INS77G/K197Q/L107V/L117V/L119Y/L178F/L71W/L74F/L85Q/L91A/L98M/M46L/N214S/P87R/Q116E/Q256R/Q57E/Q76K/R102G/R240Q/R75S/R78G/S102Y/S185I/S41F/S97I/T103A/T109R/T121G/T122I/T172A/T86R/V148I/V68A/V73E/Y34C/Y58G/Y62H). Briefly: Competitive MHC class II binding assay, DQA10101-DQB10501. Conditions: positive binding at cutoff 1000 nM; read-out: HLA-DQA10101-DQB10501.

In the next assay the target is DRB1_0405 (Homo sapiens, UniProt P01903+P01911, A100R/A169T/D86S/F76Y/I96L/K127E/L162R/M171V/N62H/P40V/Q125Y/R42H/S133A/S149N/S66Y/V115G/V209L/W38E). Nature of the assay: Competitive MHC class II binding assay, DRB1_0405.
Another assay deals with DRB3_0101 (Homo sapiens, UniProt P01903+P79483). Briefly: Competitive MHC class II binding assay, DRB3_0101.
A further assay concerns the target T2, DPA10103-DPB10402 (Homo sapiens, UniProt P04440+P20036, A65V/A84D/A85E/L207M).
T2 sequence (P20036 29-260): T1 sequence (P20036 29-260 A42M/F191V/K142R/L158P/M62Q/Q81R/T114A/T259P) with M14A, Q34M, R53Q, A86T, R114K, P130L, V163F, P231T
T2 sequence (P04440 30-258 A65V/A84D/A85E): T1 sequence (P04440 30-258 A65V/A84E/F64L/G113D/G114E/M116V/P115A/R125K/T199I/V234M) with L35F, E55D, A56E, D84G, E85G, A86P, V87M, K96R, I170T, M205V
Nature of the assay: Competitive MHC class II binding assay, DPA10103-DPB10402.

Another assay deals with DQA10501-DQB10201 (Homo sapiens, UniProt P01909+P01920, A45G/A70V/D89A/E106A/E77G/E98D/H199R/L107V/N214S/P84L/P87L/T103K/T109R/T172A/T60S/V78E/V99I/Y58L/Y62S/Y69I/Y79F). Nature of the assay: Competitive MHC class II binding assay, DQA10501-DQB10201.
A further assay concerns the target DQA10301-DQB10302 (Homo sapiens, UniProt P01909+P01920, A209T/A45G/C70Q/D89A/DUP78-78/E183D/E77G/F237L/G63E/H199R/I129T/K197E/L178F/L74F/L98V/Q57E/Q76R/S185I/S97I/T217I/T49S/V73L/Y58L). Nature of the assay: Competitive MHC class II binding assay, DQA10301-DQB10302.
The next assay has as its system DQA10401-DQB10402. Nature of the assay: Competitive MHC class II binding assay, DQA10401-DQB10402.
For a further assay, the target named is DQA10102-DQB10602. Briefly: Competitive MHC class II binding assay, DQA10102-DQB10602. The settings on record: read-out: HLA-DQA10102-DQB10602; positive binding at cutoff 1000 nM.

“GVLASAIATHAKIR [HDM26B, reference compound]”: the IC50 on DPA10202-DPB10501, at DRB1_0101, on DRB1_0401, at DRB1_0701, at DRB1_0802 and at DRB1_0901 was below 1000 nM each time. Further, the IC50 on DRB1_1302, at DRB1_1501, at DRB3_0202, at DRB4_0101, at DRB5_0101 and at DQA10501-DQB10301 was below 1000 nM in each case.

As to NGYGYFAANIDLMM [pep-011], the IC50 on DQA10101-DQB10501, on DRB1_0101, at DRB1_0401, on DRB1_0405, on DRB1_0701 and at DRB1_0901 was below 1000 nM in each case. Also, the IC50 on DRB1_1302, at DRB3_0101, on DRB3_0202, on DRB4_0101, at DPA10103-DPB10402 and on DQA10501-DQB10201 was below 1000 nM in each case. Also, the IC50 is below 1000 nM on DQA10501-DQB10301; below 1000 nM at DQA10301-DQB10302; below 1000 nM at DQA10401-DQB10402 (read-out: HLA-DQA10401-DQB10402, positive binding at cutoff 1000 nM). Also, the “binding to HLA Class II allele DRB1_1302” value on DRB1_1302 (as shown in Table 16a) was “binds to at least the same alleles as peptide 041”. For the same sequence, the “binding to HLA Class II allele DRB3_0101” value on DRB3_0101 (as shown in Table 16a) was “binds to at least the same alleles as peptide 041”. Further, the “binding to HLA Class II allele DRB3_0202” value at DRB3_0202 (as shown in Table 16a) was “binds to at least the same alleles as peptide 041”. Moreover, the “binding to HLA Class II allele DQA10501-DQB10201” value on DQA10501-DQB10201 (as shown in Table 16a) is “binds to at least the same alleles as peptide 041”. Further, the “binding to HLA Class II allele DQA10401-DQB10402” value in the assay on DQA10401-DQB10402 (as shown in Table 16a) is given as “binds to at least the same alleles as peptide 041”.

Turning to “NYSQIYPPNVNKIREA [HDM101A, reference compound]”, the IC50 at DRB1_0101, on DRB1_0701, on DRB1_1302, at DRB1_1501, at DRB3_0202 and on DPA10103-DPB10402 was below 1000 nM each time.

Consider VLASAIATHAKIRD [pep-012], for which the IC50 at DPA10202-DPB10501, on DRB1_0101, on DRB1_0701, at DRB1_0901, at DRB3_0101 and on DRB5_0101 was below 1000 nM throughout. On DQA10501-DQB10301, this sequence registered an IC50 below 1000 nM.

As to VMGDDGVLASAIATHAKIRD [pep-099], the IC50 on DPA10202-DPB10501, on DRB1_0101, at DRB1_0401, on DRB1_0802, at DRB1_0901 and at DRB1_1302 was below 1000 nM each time. Besides, the IC50 at DRB5_0101, on DQA10501-DQB10301 and at DQA10102-DQB10602 was below 1000 nM each time.

With VMGDNGVLASAIATHAKIRD [pep-125], the IC50 at DPA10202-DPB10501, at DRB1_0101, at DRB1_0802, at DRB1_0901, on DRB5_0101 and at DQA10501-DQB10301 was below 1000 nM each time. On DQA10301-DQB10302, this sequence returned an IC50 below 1000 nM.
